In patent US7956069B2, “Compounds” (AstraZeneca AB, priority 2006, dated 2011) one finds EC50 data, which are given here for twelve compounds.

The target of assay [1] is T1, hM3 (human Muscarinic receptor subtype 3) (Homo sapiens, UniProt P20309).
T1 construct: expressed in transfected cells; host or cells: CHO cells (Chinese hamster ovary cells, ATCC)
As to the kind of experiment: Human M3 calcium mobilization FLIPR assay. Format: cell-based. The conditions noted are these: CHO cells expressing hM3, Ca2+ release. The procedure: Biological Evaluation Human M1, Rat M1, Human M3 and Human M5 Calcium Mobilization FLIPR™ Assay
The compound activity in the present invention (EC50 or IC50) was measured using a 384 plate-based imaging assay that monitors drug induced intracellular Ca^2+ release in whole cells. Activation of hM1 (human Muscarinic receptor subtype 1, gene bank access NM_000738), rM1 (rat Muscarinic receptor subtype 1, gene bank access NM_080773), hM3 (human Muscarinic receptor subtype 3, gene bank access NM_000740NM_000740) and hM5 (human Muscarinic receptor subtype 5, gene bank access NM_0121258), receptors expressed in CHO cells (Chinese hamster ovary cells, ATCC) was quantified in a Molecular Devices FLIPR II™ instrument as an increase in fluorescent signal. Inhibition of hM3 and hM5 by compounds was determined by the decrease in fluorescent signal in response to 20 nM carbachol activation.
CHO cells were plated in 384-black polylysine coated plate (Costar) at 8000 cells/well/50 μl for 24 hours or 4000 cells/well for 48 hours in a humidified incubator (5% CO2 and 37° C.) in DMEM/F12 medium without selection agent. Prior to the experiment the cell culture medium was removed from the plates by inversion. A loading solution of 30 μl of Hank's balanced salt solution, 10 mM Hepes and 2.5 mM Probenicid at Ph 7.4 (Cat no. 311-520-VL, Wisent) with 2 μM calcium indicator dye (FLUO-3AM, Molecular Probes F14202) was added to each well. Plates were incubated at 37° C. for 60 minutes prior to start the experiment. The incubation was terminated by washing the cells four times in assay buffer, leaving a residual 25 μl buffer per well. Cell plates were then transferred to the FLIPR, ready for compound additions.
The day of experiment, carbachol and compounds were diluted in three-fold concentration range (10 points serial dilution) for addition by FLIPR instrument. For all calcium assays, a baseline reading was taken for 30 seconds followed by the addition of 12.5 μl (25 μl for hM1 and rM1) of compounds, resulting in a total well volume of 37.5 μl (50 μl for hM1 and rM1). Data were collected every 1.6 seconds for 300 seconds. For hM3 and hM5 an additional 12.5 μl of carbachol (20 nM final) was added at 300 seconds. After this addition of carbachol (producing a final volume of 50 μl), the FLIPR continued to collect data every 2 seconds for 240 seconds. The fluorescence emission was read using filter 1 (emission 520-545 nm) by the FLIPR on board CCD camera.
Calcium mobilization output data were calculated as the maximal relative fluorescence unit (RFU) minus the minal value for both compound and agonist reading frame (except for hM1 and rM1 using only the maximal RFU). Data were analyzed using sigmoidal fits of a non-linear curve-fitting program (XLfit version 5.0.6 from ID Business Solutions Limited, Guildford, UK). All EC50 and IC50 values are reported as arithmetic means±standard error of mean of ‘n’ independent experiments.

A further assay addresses T2, cloned human M4 receptor (Homo sapiens, UniProt P08173).
T2 construct: purchased Perkin-Elmer RBHM4M; host or cells: Chinese hamster ovary cells (CHO)
T2 sequence (P08173 1-479): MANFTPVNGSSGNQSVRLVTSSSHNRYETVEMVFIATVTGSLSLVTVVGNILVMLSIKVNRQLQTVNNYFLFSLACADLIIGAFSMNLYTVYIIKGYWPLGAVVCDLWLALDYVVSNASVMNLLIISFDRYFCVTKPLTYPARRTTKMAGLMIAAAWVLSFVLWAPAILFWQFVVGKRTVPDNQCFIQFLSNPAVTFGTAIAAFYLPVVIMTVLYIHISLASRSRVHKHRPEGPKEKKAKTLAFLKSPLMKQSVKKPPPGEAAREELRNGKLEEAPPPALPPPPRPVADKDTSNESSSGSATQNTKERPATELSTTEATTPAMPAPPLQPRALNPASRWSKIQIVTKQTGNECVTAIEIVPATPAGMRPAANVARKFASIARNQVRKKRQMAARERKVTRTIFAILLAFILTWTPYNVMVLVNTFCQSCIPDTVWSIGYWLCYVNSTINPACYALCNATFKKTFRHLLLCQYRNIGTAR
In words: hM4 receptor GTPγS binding. Format: biochemical. The conditions noted are these: CHO membranes, [35S]GTPγS binding. The procedure:
HM4 Receptor GTPγS Binding
Membranes produced from Chinese hamster ovary cells (CHO) expressing the cloned human M4 receptor (human Muscarinic receptor subtype 4, gene bank access NM_000741), were obtained from Perkin-Elmer (RBHM4M). The membranes were thawed at 37° C., passed 3 times through a 23-gauge blunt-end needle, diluted in the GTPγS binding buffer (50 mM Hepes, 20 mM NaOH, 100 mM NaCl, 1 mM EDTA, 5 mM MgCl2, pH 7.4, 100 μM DTT). The EC50, IC50 and Emax of the compounds of the invention were evaluated from 10-point dose-response curves (three fold concentration range) done in 60 μl in 384-well non-specific binding surface plate (Corning). Ten microliters from the dose-response curves plate (5× concentration) were transferred to another 384 well plate containing the following: 10 μg of hM4 membranes, 500 μg of Flashblue beads (Perkin-Elmer) and GDP in a 25 μl volume. An additional 15 μl containing 3.3× (55000 dpm) of GTPγ^35S (0.4 nM final) were added to the wells resulting in a total well volume of 50 μl. Basal and maximal stimulated [^35S]GTPγS binding were determined in absence and presence of 30 μM of acetylcholine agonist. The membranes/beads mix were pre-incubated for 15 minutes at room temperature with 40 μM GDP prior to distribution in plates (20 μM final). The reversal of acetylcholine-induced stimulation (10 μM final) of [^35S]GTPγS binding was used to assay the antagonist properties (IC50) of the compounds. The plates were incubated for 60 minutes at room temperature with shaking, then centrifuged at 2000 rpm for 5 minutes. The radioactivity (cpm) were counted in a Trilux (Perkin-Elmer).
Values of EC50, IC50 and Emax were obtained using sigmoidal fits of a non-linear curve-fitting program (XLfit version 5.0.6 from ID Business Solutions Limited, Guildford, UK) of percent stimulated [^35S]GTPγS binding vs. log(molar ligand).
All EC50 and IC50 values are reported as arithmetic means±standard error of mean of ‘n’ independent experiments. […] The IC50 was the concentration of the compound of the invention at which 50% inhibition of acetylcholine [^35S]GTPγS binding stimulation has been observed.

pEC50: −log10 of the molar value.

T1 sequence (P20309 whole entry): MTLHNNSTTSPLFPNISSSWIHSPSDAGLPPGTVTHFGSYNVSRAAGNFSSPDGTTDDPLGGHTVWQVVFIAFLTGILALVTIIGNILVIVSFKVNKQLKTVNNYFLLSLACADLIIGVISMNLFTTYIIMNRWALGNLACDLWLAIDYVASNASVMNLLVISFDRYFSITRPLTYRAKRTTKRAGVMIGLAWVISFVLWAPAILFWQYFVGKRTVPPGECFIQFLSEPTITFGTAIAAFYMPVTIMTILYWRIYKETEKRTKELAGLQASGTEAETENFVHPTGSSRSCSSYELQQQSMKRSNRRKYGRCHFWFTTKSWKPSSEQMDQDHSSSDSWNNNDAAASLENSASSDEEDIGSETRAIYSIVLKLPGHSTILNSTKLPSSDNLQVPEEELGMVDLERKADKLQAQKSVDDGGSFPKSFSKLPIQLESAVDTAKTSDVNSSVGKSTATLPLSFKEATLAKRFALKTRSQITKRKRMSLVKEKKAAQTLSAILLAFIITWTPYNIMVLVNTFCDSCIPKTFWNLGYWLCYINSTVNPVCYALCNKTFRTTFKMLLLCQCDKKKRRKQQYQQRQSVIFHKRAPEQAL

Turning to `CCOC(=O)N1CCC(N2CCC(N3C(=O)N[C@H]4CCCC[C@@H]43)CC2)CC1`, the pEC50 in assay [1] is 5.60; at cloned human M4 receptor, 6.48.

Turning to `CCOC(=O)N1CC[C@H](N2CCC(N3C(=O)N[C@H]4CCCC[C@@H]43)CC2)C1`, the figures for the pEC50 (in assay [1]; at cloned human M4 receptor) were less than 4.40 and 5.03, respectively.

Take `COc1ccccc1C(=O)N1CCC(N2CCC(N3C(=O)N[C@@H]4CCCC[C@H]43)CC2)CC1`: the pEC50 was less than 4.40 in assay [1] and less than 4.52 on cloned human M4 receptor.

For `CC(C)OC(=O)N1CCC(N2CCC(N3C(=O)N[C@H]4CCCC[C@@H]43)CC2)CC1`, the pEC50 in assay [1] was less than 4.40; at cloned human M4 receptor, 5.89.

For the compound `CC(C)OC(=O)N1CCC(N2CCC(N3C(=O)N[C@@H]4CCCC[C@@H]43)CC2)CC1`, the values for the pEC50 (in assay [1]; at cloned human M4 receptor) were less than 4.40 and 5.35, respectively.

For `O=C1CCCN1CCC(=O)N1CCC(N2CCC(N3C(=O)N[C@H]4CCCC[C@@H]43)CC2)CC1`, the pEC50 in assay [1] is less than 4.40; on cloned human M4 receptor, 5.29.

In the case of `O=C(C1CC1)N1CCC(N2CCC(N3C(=O)N[C@@H]4CCCC[C@H]43)CC2)CC1`, the pEC50 in assay [1] is less than 4.40; at cloned human M4 receptor it was less than 4.52.

Take `O=C1CCCN1CCC(=O)N1CCC(N2CCC(N3C(=O)N[C@@H]4CCCC[C@H]43)CC2)CC1`: the negative logarithm of the EC50 (pEC50) in assay [1] was 5.27; on cloned human M4 receptor, less than 4.52.

As for `O=C(C1CCCC1)N1CCC(N2CCC(N3C(=O)N[C@H]4CCCC[C@@H]43)CC2)CC1`, the negative logarithm of the EC50 (pEC50) in assay [1] is less than 4.40; on cloned human M4 receptor, less than 4.52.

For `CN1C(=O)N(C2CCN(C3CCN(C(=O)C4CC4)CC3)CC2)[C@H]2CCCC[C@@H]21`, the pEC50 in assay [1] was less than 4.40; on cloned human M4 receptor it was less than 4.52.

Turning to `CC(C)OC(=O)N1CCC(N2CCC(N3C(=O)C[C@H]4CCCC[C@@H]43)CC2)CC1`, the negative logarithm of the EC50 (pEC50) in assay [1] is less than 4.40; at cloned human M4 receptor it was 5.38.

`O=C(OCCF)N1CCC(N2CCC(N3C(=O)N[C@H]4CCCC[C@@H]43)CC2)CC1` gave a pEC50 on cloned human M4 receptor of 5.96.
